Laboratory results: patent publication US20240358678A1, “METHODS AND COMPOSITIONS FOR ENHANCING CHEMOTHERAPEUTIC DRUG UPTAKE INTO BRAIN TUMORS” (Brown University, priority 2023, published 2024)
“Also recorded” adds a separate entry of the source.

Experiments:
[1] = tested on: hCMEC/D3 brain microvascular endothelial cells; assay: ECIS electrical impedance of endothelial monolayers (Example 1); assay type: cell-based, human; details: BiA 1 μM, p<0.05
Protocol: Electrical Impedance Measurements: Human Brain microvascular endothelial cell (purchased from Sciencell) monolayers were plated on special culture chambers on top of opposing circular gold electrodes (Applied Biophysics Inc). Impedance was automatically recorded during cell monolayer formation.
The in vitro effects of indirubin on endothelial monolayer permeability were also assess using Electric Cell-substrate Impedance Sensing (ECIS®) to provide a real-time, label-free, impedance-based study of cell behaviors in tissue culture. BiA (1 μM) was added to endothelial monolayers in an ECIS impedance measurement culture system (Applied Physics).

HBMEC cells = assay: Real-time PCR for CDH5 in HBMEC cells; assay type: cell-based, human; details: 1 μM BIA, up to 48 hours
HCMEC/D3 cells [2] = assay: Human phospho-kinase array of HCMEC/D3 cells; assay type: cell-based
Protocol: Phospho-kinase array: HCMEC/D3 cells were plated at a density of 1 million cells and treated with either 1 μM BIA or vehicle DMSO for 24 hr. Cell lysates were collected with manufacturer provided Lysis Buffer 6 supplemented with 10 μg/mL Aprotinin (Tocris), 10 μg/mL Leupeptin hemisulfate (Tocris) and 10 μg/mL Pepstatin A (Tocris) for protein preservation. 50 μg of lysate from each sample were loaded into each membrane. All experiment procedures were performed using the Proteome Profiler Human Phospho-Kinase Array Kit (R&D Systems) following manufacturer's protocol.

[3] = tested on: G9-PCDH and G34-PCDH cells; assay: Platinum levels in GBM cells treated with BIA and cisplatin; assay type: cell-based, human; details: 2 μM BIA and cisplatin simultaneously
HCMEC/D3 cells [4] = assay: Trans-endothelial electrical resistance (TEER) of HCMEC/D3 monolayers; assay type: cell-based, human
Protocol: Trans-endothelial electrical resistance: HCMEC/D3 or HBMEC cells were plated in 8W10E+ PET 8-well arrays (Applied Biophysics) at a density of 100,000 cells/well in 500 μl. These arrays were placed in a pre-stabilized ECIS Z-Theta instrument (Applied Biophysics). Using the ECIS Z-Theta software (Applied Biophysics), measurements were set to 4000 and 64000 Hz every 30 minutes. […] Cells would then be treated with BIA and left to grow up to 5 days, with frequent drug-containing media re-addition for maintenance of the culture. Resistance (W) and capacitance (nF) were recorded and plotted.

[5] = tested on: patient-derived GBM neuro-spheres; assay: GBM neuro-sphere cell viability assay (Cell-Titer Glo 3D), BIA and cisplatin; assay type: cell-based, human; details: BIA 1 μM, 5 days
Protocol: (§1) Cell viability assay: Cells were plated at a density of 1500 cells/well in black-well clear bottom 96-well plates and left growing in culture conditions overnight. Next day, cells were treated with titrating doses of the indicated compounds. For BIA only cytotoxicity studies, cells were incubated with BIA for 96 hours. For BIA and cisplatin combinatorial studies, cells were incubated with BIA and cisplatin, and corresponding controls, for 5 days. Next, we used the Cell-Titer Glo 3D (Promega) following provider's guidelines and quantified for luminescence signal using a Molecular Devices SpectraMax M2 plate reader. Conditions were repeated in triplicates.

HCMEC/D3 cells [6] = assay: Flow cytometry of late apoptosis by Sytox Blue staining; assay type: cell-based, human; details: any of the used BIA doses, 72 hours, vs cisplatin control
Protocol: For apoptosis assessment, […]3 cells were treated as indicated above for 72 hours with BIA at indicated doses. Cells were collected from the 6-well plates and washed three times with PBS. Then, incubated with SYTOXTM Blue nucleic acid stain (5 mM) with a dilution of 1:1000 for 15 minutes. Cells were submitted and analyzed in the CytoFLEX system and its software as indicated above.

murine GBM models = details: cited from earlier work
HCMEC/D3 cells [7] = assay: Cell titer Glo viability assay on HCMEC/D3; assay type: cell-based, human; details: ~1-5 μM BIA, 72 hours
Protocol: as §1, with “For BIA only cytotoxicity studies, cells were incubated with BIA for 96 hours.” left out

HCMEC/D3 cells [8] = assay: Western blot of HCMEC/D3 cells; assay type: cell-based, human
Protocol: Western blot: HCMEC/D3 and GBM cell lysates were collected in RIPA Buffer (Thermo Fisher Scientific) supplemented with 1× protease/phosphatase inhibitor cocktail (Cell Signaling). Lysate collection from murine tumor tissue samples (˜30 mg) was performed under homogenization using 23G and 26G needles. Total protein concentration was measured using Pierce 660 nm Protein Assay Reagent (Thermo Fisher Scientific) at 660 nm absorbance in Molecular Devices SpectraMax M2 plate reader. Samples were incubated in 1× Laemmli sample buffer (BioRad) at 95 degrees Celsius for 5 minutes before loading onto 10% Mini-PROTEAN TGX precast protein gel (BioRad). PageRuler Plus Pre-stained Protein Ladder (Thermo Fisher Scientific) was used as ladder. Appropriate secondary antibodies, Goat anti-mouse-HRP (Sigma) or Goat anti-rabbit-HRP (Sigma) in 5% milk in 1×TBST with 1:5000 dilution.

For `CC(=O)ON=C1C(=C2C(=O)Nc3cc(Br)ccc32)Nc2ccccc21` [BIA, 6-bromoindirubin acetoxime], the “trans-endothelial electrical resistance / impedance” value [1] was “significantly decrease trans-endothelial electrical resistance; also recorded: diminishes electrical impedance”, the “CDH5 expression at the transcriptional level” value (HBMEC cells) was “decreased expression” and the “activity of endothelial nitric oxide synthase (eNOS) and the p38a/CREB axis” value (HCMEC/D3 cells [2]) was “decreased activity”. The “phosphorylation of MAPK family (p38a, JNK1, MSK1/2, ERK1/2), SRC family (SRC, YES, FGR) and transcription factors (CREB, STAT1, STAT2, STAT5a/b, c-JUN)” value (HCMEC/D3 cells [2]; 1 μM BIA, 24 hours) was “decrease of activating phosphorylation”, the “phosphorylation of STAT3 and p70 S6 kinase” value (HCMEC/D3 cells [2]; 1 μM BIA, 24 hours) was “phosphorylation of STAT3 at S727 and Y705” and the “cellular drug (platinum) accumulation due to BIA addition” value [3] was “did not observe any advantage in drug accumulation”. For the same molecule, the “barrier establishment (TEER), BIA added 24 hours after plating” value (HCMEC/D3 cells [4]) was “prevented barrier establishment”, the “barrier formation (TEER), BIA added to confluent monolayers” value (HCMEC/D3 cells [4]; BIA added at monolayer confluence (~110 hrs)) was “marked decreased of barrier formation” and the “cell viability, BIA single-treatment” value [5] was “reduced the cell viability of cells mildly”. The late apoptosis/necrosis (HCMEC/D3 cells [6]) was “did not show late apoptosis/necrosis”, the “tumor migration and growth (previously reported)” value (murine GBM models; GBM in vitro and in vivo) was “halted tumor migration and growth in vitro and in vivo” and the “angiogenesis of intra-cranial murine GBM models (previously reported)” value (murine GBM models; mouse, in vivo) was “reduced angiogenesis”. For the same molecule, the reduction of viability (HCMEC/D3 cells [7]) was “up to 30%”, the “time of maximum reduction of CDH5 protein levels post-BIA addition” value (HCMEC/D3 cells [8]; 1 μM BIA, remained for 2 days) was 12 h and the “protein levels of CAV1 or MFSD2A” value (HCMEC/D3 cells [8]; BIA 1 μM, 48 hours) was “did not show any changes of protein levels”.
